Values quoted from earlier work in patent US20250152987A1 (priority 2022, published 2025).

System: SARS CoV-2 virus

CN(C)c1ccc2nc3ccc(=[N+](C)C)cc-3sc2c1 [methylene blue]
inactivation of SARS CoV-2 virus: inactivation
